Experimental data: patent US12473276B2, “Compound having neuroprotective effect, preparation method therefor and use thereof” (Shanghai Zhimeng Biopharma, Inc., priority 2019, dated 2025)
Where “and” joins values, the source holds several entries; their conditions need not be identical. Identical values can stand only once.

Tested on: rat focal cerebral ischemia-reperfusion model (Middle cerebral artery occlusion, MCAO)
Experiment: Protective effect on focal cerebral ischemia reperfusion (MCAO) in rats: cerebral infarction area by TTC staining
Format: in vivo, Sprague Dawley (SD) rat
Settings: for Cerebral infarction area in rats (%): 2.0 h ischemia then reperfusion, mean ± standard error; for Effect on reducing the cerebral infarct area in model rats compared with the model group (significance): P<0.05 significant; for Compared with the model group, the reduced proportion of cerebral infarction area in the compound group: versus model group of the same test
Procedure: Sprague Dawley (SD) rat, male, SPF grade, weight 250-280 g
• Compounds 04007, 04015, 04041, 04047, 04050 and 04089 • Commercially available edaravone injection, products of Nanjing Simcere dongyuan pharmaceutical Co., Ltd, specifications 10 mg/mL 1.3 Experimental Method 1.3.1 Preparation of Focal Cerebral Ischemia-Reperfusion Model
The rat focal cerebral ischemia-reperfusion model (Middle cerebral artery occlusion, MCAO) was prepared by internal carotid artery suture method. Rats were injected intraperitoneally with 7% chloral hydrate (6.0 mL/kg), and the depth of anesthesia was appropriate for severe stimulation of animals with slight reaction. The anesthetized rats were tightened with rubber bands on the limbs (the hind limbs were fixed above the knee joint, and the forelimbs were fixed above the wrist joint) and the head, and the animals were fixed on the operating table in the supine position, and the animal shaver was used from the head end to the chest to shave hair, and the skin was disinfected with alcohol. The neck was cut in the middle and the subcutaneous tissue was blunt separated. […] The arterial shell was opened, the right carotid bifurcation was exposed, and the right common carotid artery, external carotid artery, internal carotid artery were separated, the vagus nerve was gently peeled off, the external carotid artery was ligated and cut off. The end of the common carotid artery proximity to the heart was clamped, and an incision was made from the distal end of the ligature line of the external carotid artery, suture was inserted and entered into the internal carotid artery through the bifurcation of the common carotid artery, and then slowly inserted until there was slight resistance (about 20 mm from the bifurcation), all blood supply of the middle cerebral artery was blocked. The suture was slightly fixed with the silk under the incision of the external carotid artery, the clamping silk at the end of the common carotid artery proximity to the heart was loosen, the wound surface was covered with gauze soaked with disinfected normal saline, and the rats were kept warm by placing on the heat preservation mat. After right cerebral ischemia for 2.0 h, the suture was gently pulled out, blood supply was restored for reperfusion, the external carotid artery was ligated with the silk fixing the suture, the skin was sutured, and disinfected.
The experimental animals were divided into model group, edaravone group (6 mg/kg) and compound to be tested group (5 mg/kg ration of compound to be tested: 5% DMAC+5% Solutol HS 15+90% Saline were used to prepare a solution with a concentration of 1 mg/mL.
After the ischemia model was prepared, the animals were assigned to each group in a single blind with equal probability. The animals were administered intravenously once immediately after reperfusion, and the animals in the model group were given the same volume of normal saline. The animals were sacrificed 24 hours after ischemia, the brain was taken, stained and photographed to determine the area of cerebral infarction.
The degree of cerebral infarction was determined by TTC, staining. After the evaluation of the symptoms of neurological defects in animals was completed, the animals were killed with CO2, the brain was taken by decapitation, the olfactory bulb, cerebellum and low brainstem were removed, blood stains on the surface of the brain were washed with normal saline, residual water stains on the surface were sucked out, and placed at −20° C. for 20 min. Immediately after taking out, the coronal section was made vertically downward at the intersection plane of the line of sight, and cut a slice every 2 mm backwards, the brain slices were incubated in 1% TTC dye solution (37° C. for 20 min). The normal brain tissue was dyed crimson, while the ischemic brain tissue was pale. […]

[1] = compound 5 mg/kg intravenously once immediately after reperfusion, measured 24 hours after ischemia
[2] = compound 5 mg/kg versus edaravone 6 mg/kg

`CN1CC(OC(=O)c2ccc(N3Cc4cc(Cl)cc(Cl)c4OC3=S)cn2)C1` [Compound 04007] was tested, and the “Cerebral infarction area in rats (%)” value [1] was 35.41 ± 3.71%, the “Effect on reducing the cerebral infarct area in model rats compared with the model group (significance)” value (compound 5 mg/kg i.v.) was “significantly reduce the cerebral infarct area” and the “Compared with the model group, the reduced proportion of cerebral infarction area in the compound group” value (compound 5 mg/kg i.v.) was 26%. The “Efficacy compared with the positive control drug edaravone group” value [2] was “equivalent or better efficacy”.
`CCOC(=O)c1ccc(Cn2c(=S)oc3c(Cl)cc(Cl)cc32)cc1O` [Compound 04041] was tested, and the “Cerebral infarction area in rats (%)” value [1] was 30.37 ± 4.36%, the “Effect on reducing the cerebral infarct area in model rats compared with the model group (significance)” value (compound 5 mg/kg i.v.) was “significantly reduce the cerebral infarct area” and the “Compared with the model group, the reduced proportion of cerebral infarction area in the compound group” value (compound 5 mg/kg i.v.) was 37%. For the same compound, the “Efficacy compared with the positive control drug edaravone group” value [2] was “equivalent or better efficacy”.
`CC(C)OC(=O)c1ccc(N2COc3c(Cl)cc(Cl)cc3C2)cn1` [Compound 04047] was tested, and the “Cerebral infarction area in rats (%)” value [1] was 35.47 ± 5.34%, the “Effect on reducing the cerebral infarct area in model rats compared with the model group (significance)” value (compound 5 mg/kg i.v.) was “no significant effect on reducing the cerebral infarct area” and the “Compared with the model group, the reduced proportion of cerebral infarction area in the compound group” value (compound 5 mg/kg i.v.) was 15%.
With `C#CCCOC(=O)c1ccc(N2Cc3cc(Cl)cc(Cl)c3OC2=S)cn1` [Compound 04050] the “Cerebral infarction area in rats (%)” value [1] was 30.97 ± 4.33%, the “Effect on reducing the cerebral infarct area in model rats compared with the model group (significance)” value (compound 5 mg/kg i.v.) was “significantly reduce the cerebral infarct area” and the “Compared with the model group, the reduced proportion of cerebral infarction area in the compound group” value (compound 5 mg/kg i.v.) was 26%. The “Efficacy compared with the positive control drug edaravone group” value [2] was “equivalent or better efficacy”.
For `CCOCCOC(=O)c1ccc(N2Cc3cc(Cl)cc(Cl)c3OC2=S)cn1` [Compound 04089], the “Cerebral infarction area in rats (%)” value (compound 0.5 mg/kg intravenously once immediately after reperfusion, measured 24 hours after ischemia) was 27.80 ± 2.22%, the “Effect on reducing the cerebral infarct area in model rats compared with the model group (significance)” value (compound 0.5 mg/kg i.v.) was “significantly reduce the cerebral infarct area” and the “Compared with the model group, the reduced proportion of cerebral infarction area in the compound group” value (compound 0.5 mg/kg i.v.) was 34%. For the same compound, the “Efficacy compared with the positive control drug edaravone group” value (compound 0.5 mg/kg versus edaravone 6 mg/kg) was “equivalent or better efficacy”.
`CC1=NN(c2ccccc2)C(=O)C1` [edaravone, reference compound] was tested, and the “Cerebral infarction area of rats in edaravone group in the same test(%)” value (edaravone 6 mg/kg intravenously once immediately after reperfusion, measured 24 hours after ischemia, one value per test run) was 32.08% and 27.44% and 28.47% and 32.45%.
